Laboratory results as given in patent US12384808B2, “Modulators of TNF-α activity” (Forward Therapeutics, Inc., priority 2022, dated 2025).

What follows are compounds tested against TNFα (Homo sapiens, UniProt P01375) (assay: TNFα Induced HEK Blue Cellular Assay). Conditions: HEK Blue TNFα reporter cells, TNFα 100 pg/ml, 24 hrs at 37° C., secreted alkaline phosphatase (QUANTI-Blue) read at 620 nm; read-out: IC50 value.
Type: cell-based
In short: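 Reporter cells (10,000/well, DMEM + 10% FBS) with compound (final […] to 0.5 nM) stimulated with 100 pg/ml TNFα, 24 h at 37 °C, 5% CO2. Secreted alkaline phosphatase read at 620 nm; IC50 by 4-parameter logistic fit after background correction against stimulated/unstimulated DMSO controls.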

Chain of TNFα (P01375 77-233 limits assumed): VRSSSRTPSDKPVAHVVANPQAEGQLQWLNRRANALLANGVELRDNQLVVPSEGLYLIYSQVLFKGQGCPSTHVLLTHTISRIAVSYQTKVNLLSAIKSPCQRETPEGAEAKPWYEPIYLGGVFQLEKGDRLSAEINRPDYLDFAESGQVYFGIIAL

| SMILES | IC50 |
| --- | --- |
| CN1C(=O)c2cccc(OC(F)F)c2[C@H]2C[C@@H]1c1nc3ccc(-c4cc(F)c(P(C)(C)=O)c(F)c4)cc3n12 [Example 37, (1R,11R)-18-(difluoromethoxy)-5-[4-(dimethylphosphoryl)-3,5-difluorophenyl]-12-methyl-2,9,12-triazapentacyclo[9.8.1.0^{2,10}.0^{3,8}.0^{14,19}]icosa-3(8),4,6,9,14(19),15,17-heptaen-13-one] | < 100 nM |
| [2H]C([2H])([2H])N1C(=O)c2cccc(OC(F)F)c2[C@H]2C[C@@H]1c1nc3ccc(-c4ccc(P(C)(C)=O)c(C(F)F)c4)cc3n12 [Example 103, (7R,14R)-1-(difluoromethoxy)-11-(3-(difluoromethyl)-4-(dimethylphosphoryl)phenyl)-6-(methyl-d3)-6,7-dihydro-7,14-methanobenzo[f]benzo[4,5]imidazo[1,2-a][1,4]diazocin-5(14H)-one] | < 100 nM |
| CN1C(=O)c2cccc(OC(F)F)c2[C@H]2C[C@@H]1c1nc3ccc(-c4cc(F)c(P(C)(C)=O)cc4F)cc3n12 [Example 56, (1R,11R)-18-(difluoromethoxy)-5-[4-(dimethylphosphoryl)-2,5-difluorophenyl]-12-methyl-2,9,12-triazapentacyclo[9.8.1.0^{2,10}.0^{3,8}.0^{14,19}]icosa-3(8),4,6,9,14(19),15,17-heptaen-13-one] | < 100 nM |
| CN1C(=O)c2cccc(OC(F)F)c2[C@H]2C[C@@H]1c1nc3ccc(-c4ccc(P(C)(C)=O)cc4Cl)cc3n12 [Example 27, (1R,11R)-5-[2-chloro-4-(dimethylphosphoryl)phenyl]-18-(difluoromethoxy)-12-methyl-2,9,12-triazapentacyclo[9.8.1.0^{2,10}.0^{3,8}.0^{14,19}]icosa-3(8),4,6,9,14(19),15,17-heptaen-13-one] | < 100 nM |
| CN1C(=O)c2cccc(OC(F)F)c2[C@H]2C[C@@H]1c1nc3cc(F)c(-c4ccc(P(C)(C)=O)cc4F)cc3n12 [Example 58, (1R,11R)-18-(difluoromethoxy)-5-[4-(dimethylphosphoryl)-2-fluorophenyl]-6-fluoro-12-methyl-2,9,12-triazapentacyclo[9.8.1.0^{2,10}.0^{3,8}.0^{14,19}]icosa-3(8),4,6,9,14(19),15,17-heptaen-13-one] | < 100 nM |
| [2H]C([2H])([2H])N1C(=O)c2cccc(O)c2[C@H]2C[C@@H]1c1nc3ccc(-c4cc(F)c(P(C)(C)=O)cc4F)cc3n12 [Example 71, (7R,14R)-11-(4-(dimethylphosphoryl)-2,5-difluorophenyl)-1-hydroxy-6-(methyl-d3)-6,7-dihydro-7,14-methanobenzo[f]benzo[4,5]imidazo[1,2-a][1,4]diazocin-5(14H)-one] | 10000 to 30000 nM |
| [2H]C([2H])([2H])N1C(=O)c2cccc(OC(F)F)c2[C@H]2C[C@@H]1c1nc3cc(F)c(-c4ccc(P(C)(C)=O)c(F)c4)cc3n12 [Example 59, (7R,14R)-1-(difluoromethoxy)-11-(4-(dimethylphosphoryl)-3-fluorophenyl)-10-fluoro-6-(methyl-d3)-6,7-dihydro-7,14-methanobenzo[f]benzo[4,5]imidazo[1,2-a][1,4]diazocin-5(14H)-one] | < 100 nM |
| [2H]C([2H])([2H])N1C(=O)c2cccc(OC(F)F)c2[C@H]2C[C@@H]1c1nc3cc(F)c(-c4ccc(P(C)(C)=O)cc4)cc3n12 [Example 64, (7R,14R)-1-(difluoromethoxy)-11-(4-(dimethylphosphoryl)phenyl)-10-fluoro-6-(methyl-d3)-6,7-dihydro-7,14-methanobenzo[f]benzo[4,5]imidazo[1,2-a][1,4]diazocin-5(14H)-one] | 100 to 1000 nM |
| CCN1C(=O)c2cccc(OC(F)F)c2[C@H]2C[C@@H]1c1nc3ccc(-c4ccc(P(C)(C)=O)nc4)cc3n12 [Example 19, (1R,11R)-18-(difluoromethoxy)-5-[6-(dimethylphosphoryl)pyridin-3-yl]-12-ethyl-2,9,12-triazapentacyclo[9.8.1.0^{2,10}.0^{3,8}.0^{14,19}]icosa-3(8),4,6,9,14(19),15,17-heptaen-13-one] | < 100 nM |
| [2H]C([2H])([2H])N1C(=O)c2cccc(OC(F)F)c2[C@H]2C[C@@H]1c1nc3ccc(-c4ccc(P(C)(C)=O)c(F)c4)cc3n12 [Example 24, (7R,14R)-1-(difluoromethoxy)-11-(4-(dimethylphosphoryl)-3-fluorophenyl)-6-(methyl-d3)-6,7-dihydro-7,14-methanobenzo[f]benzo[4,5]imidazo[1,2-a][1,4]diazocin-5(14H)-one] | < 100 nM |
| CN1C(=O)c2cccc(OC(F)F)c2[C@H]2C[C@@H]1c1nc3ccc(-c4cnc(OCP(C)(C)=O)s4)cc3n12 [Example 25, (1R,11R)-18-(difluoromethoxy)-5-{2-[(dimethylphosphoryl)methoxy]-1,3-thiazol-5-yl}-12-methyl-2,9,12-triazapentacyclo[9.8.1.0^{2,10}.0^{3,8}.0^{14,19}]icosa-3(8),4,6,9,14(19),15,17-heptaen-13-one] | < 100 nM |
| CN1C(=O)c2cccc(OC(F)F)c2[C@H]2C[C@@H]1c1nc3ccc(-c4cnc(P(C)(C)=O)c(F)c4)cc3n12 [Example 4, (7R,14R)-1-(difluoromethoxy)-11-(6-(dimethylphosphoryl)-5-fluoropyridin-3-yl)-6-methyl-6,7-dihydro-7,14-methanobenzo[f]benzo[4,5]imidazo[1,2-a][1,4]diazocin-5(14H)-one] | < 100 nM |
| CP(C)(=O)COc1ccc(-c2ccc3nc4n(c3c2)[C@@H]2C[C@H]4NC(=O)c3cccc(OC(F)F)c32)cn1 [Example 11, (1R,11R)-18-(difluoromethoxy)-5-{6-[(dimethylphosphoryl)methoxy]pyridin-3-yl}-2,9,12-triazapentacyclo[9.8.1.0^{2,10}.0^{3,8}.0^{14,19}]icosa-3(8),4,6,9,14(19),15,17-heptaen-13-one] | 1000 to 10000 nM |
| CN1C(=O)c2cccc(OC(F)F)c2[C@H]2C[C@@H]1c1nc3ccc(-c4cnc(OCP(C)(C)=O)nc4)cc3n12 [Example 9, (1R,11R)-18-(difluoromethoxy)-5-{2-[(dimethylphosphoryl)methoxy]pyrimidin-5-yl}-12-methyl-2,9,12-triazapentacyclo[9.8.1.0^{2,10}.0^{3,8}.0^{14,19}]icosa-3(8),4,6,9,14(19),15,17-heptaen-13-one] | 100 to 1000 nM |
| CN1C(=O)c2cccc(OC(F)F)c2[C@H]2C[C@@H]1c1nc3ccc(-c4ccc(P(C)(C)=O)cc4F)cc3n12 [Example 28, (1R,11R)-18-(difluoromethoxy)-5-[4-(dimethylphosphoryl)-2-fluorophenyl]-12-methyl-2,9,12-triazapentacyclo[9.8.1.0^{2,10}.0^{3,8}.0^{14,19}]icosa-3(8),4,6,9,14(19),15,17-heptaen-13-one] | < 100 nM |
| [2H]C([2H])([2H])N1C(=O)c2cccc(OC(F)(F)F)c2[C@H]2C[C@@H]1c1nc3ccc(-c4ccc(P(C)(C)=O)c(F)c4)cc3n12 [Example 128, (7R,14R)-11-(4-(dimethylphosphoryl)-3-fluorophenyl)-6-(methyl-d3)-1-(trifluoromethoxy)-6,7-dihydro-7,14-methanobenzo[f]benzo[4,5]imidazo[1,2-a][1,4]diazocin-5(14H)-one] | < 100 nM |
| [2H]C([2H])([2H])N1C(=O)c2cccc(OC(F)F)c2[C@H]2C[C@@H]1c1nc3ccc(-c4cnc(P(C)(C)=O)c(F)c4)cc3n12 [Example 124, (7R,14R)-1-(difluoromethoxy)-11-(6-(dimethylphosphoryl)-5-fluoropyridin-3-yl)-6-(methyl-d3)-6,7-dihydro-7,14-methanobenzo[f]benzo[4,5]imidazo[1,2-a][1,4]diazocin-5(14H)-one] | < 100 nM |
| CN1C(=O)c2cccc(OC(F)F)c2[C@H]2C[C@@H]1c1nc3ccc(-c4cnc(OCP(C)(C)=O)c(F)c4)cc3n12 [Example 10, (1R,11R)-18-(difluoromethoxy)-5-{6-[(dimethylphosphoryl)methoxy]-5-fluoropyridin-3-yl}-12-methyl-2,9,12-triazapentacyclo [9.8.1.0^{2,10}.0^{3,8}.0^{14,19}]icosa-3(8),4,6,9,14(19),15,17-heptaen-13-one] | < 100 nM |
| [2H]C([2H])([2H])N1C(=O)c2cccc(OC(F)F)c2[C@H]2C[C@@H]1c1nc3ccc(-c4ccc(P(C)(C)=O)c(Cl)c4)cc3n12 [Example 117, (7R,14R)-11-(3-chloro-4-(dimethylphosphoryl)phenyl)-1-(difluoromethoxy)-6-(methyl-d3)-6,7-dihydro-7,14-methanobenzo[f]benzo[4,5]imidazo[1,2-a][1,4]diazocin-5(14H)-one] | < 100 nM |
| [2H]C([2H])([2H])N1C(=O)c2cccc(OC(F)F)c2[C@H]2C[C@@H]1c1nc3ccc(-c4ccc(C(F)(F)P(C)(C)=O)cc4)cc3n12 [Example 95, (7R,14R)-1-(difluoromethoxy)-11-(4-((dimethylphosphoryl)difluoromethyl)phenyl)-6-(methyl-d3)-6,7-dihydro-7,14-methanobenzo[f]benzo[4,5]imidazo[1,2-a][1,4]diazocin-5(14H)-one] | < 100 nM |
| CN1C(=O)c2cccc(OC(F)F)c2[C@H]2C[C@@H]1c1nc3ccc(-c4ccc(OCP(C)(C)=O)c(F)c4)cc3n12 [Example 18, (1R,11R)-18-(difluoromethoxy)-5-{4-[(dimethylphosphoryl)methoxy]-3-fluorophenyl}-12-methyl-2,9,12-triazapentacyclo[9.8.1.0^{2,10}.0^{3,8}.0^{14,19}]icosa-3(8),4,6,9,14(19),15,17-heptaen-13-one] | < 100 nM |
| [2H]C([2H])([2H])N1C(=O)c2cccc(OC)c2[C@H]2C[C@@H]1c1nc3ccc(-c4cc(F)c(P(C)(C)=O)cc4F)cc3n12 [Example 74, (7R,14R)-11-(4-(dimethylphosphoryl)-2,5-difluorophenyl)-1-methoxy-6-(methyl-d3)-6,7-dihydro-7,14-methanobenzo[f]benzo[4,5]imidazo[1,2-a][1,4]diazocin-5(14H)-one] | 100 to 1000 nM |
